pKi: −log10 of the molar value. Each block holds one compound with its values, some of them ahead of it.
Legend:
[1] = Drug accumulation in human MCF7 cells assessed as increase in mean fluorescence intensity pretreated with (+)-pentazocine for 60 mins followed by compound addition incubated for 45 mins by flow cytometric analysis; format: ADME, cell-based; conditions: mcf7, 0.75 h, dose 0.01-1 µM
[2] = target: T1, Sigma intracellular receptor 2 (Homo sapiens, UniProt Q5BJF2); assay: Binding affinity to sigma 2 receptor in human MCF7 cells assessed as increase in fluorescent intensity pretreated with (+)-pentazocine for 60 mins followed by compound addition incubated for 45 mins by flow cytometric analysis; format: cell-based; conditions: dose 0.01-1 µM
[3] = Drug uptake in human MCF7 cells expressing sigma 1 receptor assessed as increase in fluorescence intensity in presence of (+)-pentazocine incubated at 1 to 10000 nM for 45 mins by flow cytometric analysis; format: ADME, cell-based; conditions: mcf7, 0.75 h, 10 µM, dose 1-10000 nM
[4] = Drug accumulation in human MCF7 TMEM97 knock out cells assessed as increase in mean fluorescence intensity pretreated with (+)-pentazocine for 60 mins followed by compound addition incubated for 45 mins by flow cytometric analysis; format: ADME, cell-based; conditions: mcf7, 0.75 h, dose 0.01-1 µM
[5] = target: T1, Sigma intracellular receptor 2; assay: Binding affinity to sigma 2 receptor (unknown origin) assessed as inhibition constant
[6] = target: Sigma non-opioid intracellular receptor 1 (Homo sapiens, UniProt Q99720); assay: Binding affinity to sigma 1 receptor (unknown origin) assessed as inhibition constant
[7] = target: T2, Sigma non-opioid intracellular receptor 1 (Cavia porcellus, UniProt Q60492); assay: Displacement of [3H](+)-pentazocine from sigma 1 receptor in guinea pig brain membranes assessed as inhibition constant by Wallac 1450 MicroBeta liquid scintillation counter; format: cell membranes, Membrane
[8] = target: T3, Sigma intracellular receptor 2 (Rattus norvegicus, UniProt Q5U3Y7); assay: Displacement of [3H]RHM-1 from sigma 2 receptor in Wistar Han rat liver membrane assessed as inhibition constant by competitive binding assay; format: cell membranes
T3 sequence (Q5U3Y7 whole entry): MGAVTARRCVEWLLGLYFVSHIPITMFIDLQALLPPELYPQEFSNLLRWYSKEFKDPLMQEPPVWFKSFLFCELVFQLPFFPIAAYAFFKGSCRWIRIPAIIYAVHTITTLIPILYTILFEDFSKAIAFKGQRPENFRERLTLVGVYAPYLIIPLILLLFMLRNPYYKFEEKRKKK

[9] = target: T2, Sigma non-opioid intracellular receptor 1; assay: Displacement of [3H](+)-pentazocine from sigma 1 receptor in guinea pig brain membranes assessed as inhibition constant by competitive binding assay; format: cell membranes, Membrane
[10] = target: T3, Sigma intracellular receptor 2; assay: Displacement of [3H]DTG from sigma 2 receptor in Wistar Han rat liver membrane assessed as inhibition constant by competitive binding assay; format: cell membranes

T1 sequence (Q5BJF2 whole entry): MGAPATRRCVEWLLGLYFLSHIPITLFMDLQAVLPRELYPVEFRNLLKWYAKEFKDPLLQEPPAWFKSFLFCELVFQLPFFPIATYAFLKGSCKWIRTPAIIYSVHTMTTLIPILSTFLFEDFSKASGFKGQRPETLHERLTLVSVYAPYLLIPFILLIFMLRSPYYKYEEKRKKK
T2 sequence (Q60492 whole entry): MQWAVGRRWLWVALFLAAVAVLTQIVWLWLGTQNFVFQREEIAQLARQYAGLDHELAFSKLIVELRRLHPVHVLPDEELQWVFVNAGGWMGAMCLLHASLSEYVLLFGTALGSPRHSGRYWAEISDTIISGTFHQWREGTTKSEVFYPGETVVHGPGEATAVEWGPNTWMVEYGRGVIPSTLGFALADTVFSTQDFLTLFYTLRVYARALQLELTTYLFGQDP
Sequence of Sigma non-opioid intracellular receptor 1 (Homo sapiens, UniProt Q99720) (Q99720 whole entry): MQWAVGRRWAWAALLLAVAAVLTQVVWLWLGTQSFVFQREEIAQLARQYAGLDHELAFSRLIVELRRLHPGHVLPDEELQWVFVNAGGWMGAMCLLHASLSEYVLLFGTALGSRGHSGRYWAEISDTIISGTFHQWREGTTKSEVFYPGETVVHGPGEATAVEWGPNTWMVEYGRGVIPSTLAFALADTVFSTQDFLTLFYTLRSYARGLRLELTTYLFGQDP

Compound: C[N+]1=C(/C=C/C=C/C=C2\N(CCCCCC(=O)NCCCCCCn3cc(CCCCN4CCC5(CC4)OCc4ccccc45)c4ccccc43)c3ccccc3C2(C)C)C(C)(C)c2ccccc21.[I-]
Drug uptake [1]: Dose-Dependent Effect | Activity [2]: Dose-Dependent Effect | Drug uptake [3]: Not Active | Drug uptake [4]: Dose-Dependent Effect

Compound: C[N+]1=C(/C=C/C=C/C=C2/N(CCCCCC(=O)Nc3ccc4ccn(CCCCN5CCC6(CC5)OCc5ccccc56)c4c3)c3ccccc3C2(C)C)C(C)(C)c2ccccc21.[I-]
Drug uptake [1]: Dose-Dependent Effect

Compound: COc1ccc(C)cc1NC(=O)OC1C[C@H]2CCC[C@@H](C1)N2CCCCCCCCCCS(=O)(=O)c1cccc2c(N(C)C)cccc12 (some centres not stated)
pKi [7]: 8.98 | pKi [8]: 7.85

The remaining lines, values ahead:

pKi [5]: 7.75 | pKi [6]: 10.52
Compound: CC1CCN(CCCCc2cccc3cc(OCCCCCCN4C(=O)c5ccc(N(C)C)cc5C4=O)ccc23)CC1

pKi [5]: 8.16
Compound: CN(C)c1ccc2c(c1)C(=O)N(Oc1cccc3c1CCCC3CCCN1CCN(C3CCCCC3)CC1)C2=O (configuration not stated)

pKi [9]: < 5.30 | pKi [10]: 7.99
Compound: COc1cc2c(cc1OC)CN(CCCN1CCc3c(OCCCCCCN4C(=O)c5ccc(N(C)C)cc5C4=O)cccc3C1=O)CC2

Source: ChEMBL document CHEMBL5247658, “Development of Fluorescent 4-[4-(3H-Spiro[isobenzofuran-1,4'-piperidin]-1'-yl)butyl]indolyl Derivatives as High-Affinity Probes to Enable the Study of σ Receptors via Fluorescence-Based Techniques” (J Med Chem, 2023)
